Data as given in patent US6972343B1, “Quaternary bis-ammonium salt precursors and their uses as prodrugs having an antiparasitic activity” (CNRS, priority 1999, dated 2005).
“And” between values parts separate entries of the source, which are not always exact repeats. Identical values can stand only once. Counter-ions that a name gives are not always drawn. Like-named read-outs stand apart in the source and are kept apart here. Marks after values point to notes of the source that are not given here.

Legend:
P. falciparum = experiment: Antimalarial activity against P. falciparum in vitro (Desjardins [3H]hypoxanthine incorporation); assay type: cell-based
Description: FIG. 1, the anti-malarial action of a precursor of thiazolium (designated by TE4c in the examples), and corresponding thiazolium (T4) as a function of the concentration of drug, according to the Desjardins test, (Desjardins R. E. et al, Antimicrob. Agents Chemother. 1979, 16, 710-718),
The IC50 measurements are determined vis-à-vis P. falciparum according to the Desjardins method in which the incorporation of [^3H] hypoxanthine (FIG. 1) into the nucleic acids is an indicator of cell viability. In each case, optical microscopy controls are carried out.
(§1) The IC50 is the concentration which inhibits by 50% the in vitro growth of P. falciparum: the LD50 is the lethal dose corresponding to the death of 50% of the mice and the ED50 is the effective dose for inhibiting by 50% the in vivo growth of P. vinckei according to a 4-day suppressive test, TI corresponds to the therapeutic index, TI=LD50 (semi-chronic)/ED50; ip: intraperitoneal administration; po: per os.

[1] = Tolerance in the mouse: LD50 after acute or semi-chronic administration; assay type: in vivo; details: for Oral absorption index (LD50 po/LD50 ip ratio, acute): acute administration; for LD50 at 4 days / LD50: in vivo; for LD50 at 4 days / In vivo LD50 (mg/kg) (mouse) semi-chronic: twice per day for 4 consecutive days; for LD50 / In vivo LD50 (mg/kg) (mouse) acute: single dose
Text: (§2) B) Antimalarial Activity in vivo Against a Mouse Infected by P. vinckei and Tolerance After Administration in Acute or Semi-chronic Conditions.
as §1

P. vinckei = experiment: animal or person; assay type: in vivo; details: mouse, 4-day suppressive test, TE4c in 50/50 PEG/castor oil; for ED50: Plasmodium vinckei, 96 h, read-out: In vivo ED50 (mg/kg) (P. vinckei)
Text: as §2, §1

[2] = Pharmacokinetics in the monkey (ex vivo bio-test serum level); details: Macaca fascicularis, intramuscular 4 mg/kg
Description: (§3) For determination of the serum level, bio-tests are used ex vivo: briefly, the medicament is administered to the animal, then repeated blood samples are taken. The sera are decomplemented for 30 minutes at 56° C. The active metabolite content is then determined by incubation of different concentrations (dichotomic dilution) of each serum, in the presence of suspensions of erythrocytes infected by P. falciparum, according to the DESJARDINS method with [^3H] hypoxanthine.
The results are expressed in IS50, which corresponds to the percentage of serum (containing an active metabolite) capable of inhibiting the growth of P. falciparum by 50%. […]
The results are expressed as the log (serum level of medicaments), as a function of time, which allows the evaluation of the half-time for distribution to the serum compartment t1/2(d); the half-time for elimination of the serum compartment (t1/2(e)); of C0), corresponding to the serum level originally extrapolated during the elimination phase; the AUC (which indicates the quantity of drug circulating in the blood stream); and the relative bio-availability in the oral route administration method, as against the intraperitoneal route method [AUC (po)/AUC (ip)] which is an indicator of the degree of absorption by oral route. […]

Babesia divergens = experiment: Antibabesiasis activity in vitro against Babesia divergens; assay type: cell-based
Description: (§4) The products TE4c, TS3b and P1 were also evaluated in vitro for their activities against Babesia divergens and B. canis.

B. canis = experiment: Antibabesiasis activity in vitro against B. canis; assay type: cell-based
Description: as §4

[3] = Pharmacokinetics / serum level in the mouse (ex vivo bio-test on P. falciparum)
Description: The results of the pharmacokinetic parameters after administration by intraperitoneal or oral route in a mouse for a prodrug of disulphice type (TS3b) and a prodrug of thioester type (TE4c) are presented hereafter.
as §3
The results are expressed in IS50, which corresponds to the percentage of serum (containing an active metabolite) capable of inhibiting the growth of P. falciparum by 50%.
This value is then converted into a serum concentration, (usually expressed in ng/ml) by testing the active compound directly (without passing through the animal), on the same suspension infected by P. falciparum and by determining its IC50 value (in ng/ml) [serum level=IC50] (in ng/ml)×100/IS50 (in %)].
The results are expressed as the log (serum level of medicaments), as a function of time, which allows the evaluation of the half-time for distribution to the serum compartment t1/2(d); the half-time for elimination of the serum compartment (t1/2(e)); of C0), corresponding to the serum level originally extrapolated during the elimination phase; the AUC (which indicates the quantity of drug circulating in the blood stream); and the relative bio-availability in the oral route administration method, as against the intraperitoneal route method [AUC (po)/AUC (ip)] which is an indicator of the degree of absorption by oral route.

[4] = test system: P. falciparum (FVO strain); experiment: Antimalarial activity against Plasmodium falciparum in the Aotus monkey; assay type: in vivo; details: Aotus monkeys
Description: 3 Aotus monkeys were infected with P. falciparum (FVO strain). When the blood parasitemia reached 1% (2 monkeys) or 6% (1 monkey), treatment by intramuscular route at a rate of 2 injections per day of TE4c (2mg/kg), for 8 days, was carried out.

[5] = in vitro growth of P. falciparum, [3H]hypoxanthine incorporation, 48 hours test, read-out: IC50
[6] = ip, TE4c value corresponds to death of only 25% of the mice, read-out: In vivo LD50 (mg/kg) (mouse) semi-chronic
[7] = po, read-out: In vivo LD50 (mg/kg) (mouse) semi-chronic
[8] = ip, TE4c value corresponds to death of only 25% of the mice
[9] = 3 mg/kg ip and 50 mg/kg po, both routes
[10] = ip 3 mg/kg TE4c, active metabolite considered to be T4
[11] = oral 50 mg/kg TE4c, active metabolite considered to be T4
[12] = oral route, higher dose series (150 mg/kg po)

## N,N′-diformyl-N,N′-di[1-methyl-2-S-(p-phthaloyl)-thio-4-methoxybut-1-enyl]-1,12-diaminododecane [TE4j]
P. falciparum; [5]
  IC50: 2.7 nM

## Cc1c(CCOCCCCCCOCCc2sc[n+](Cc3ccccc3)c2C)sc[n+]1Cc1ccccc1 [T10, 3,10-dioxadodecamethylenebis[5-(1-benzyl, 4-methyl)-thiazolium] dibromide]
P. falciparum; [5]
  IC50: 2.5 nM

## CCOC(=O)CCc1c(CCCCCCCCCCCCc2sc[n+](Cc3ccccc3)c2CCC(=O)OCC)sc[n+]1Cc1ccccc1 [T13, dodecamethylenebis[5-(1-benzyl-4-ethoxycarbonylethyl)-thiazolium] dibromide]
P. falciparum; [5]
  IC50: 250 nM

## 1,16-hexadecamethylenebis[4-methyl-5-(2-methoxyethyl)thiazolium] diiodide [T8]
P. falciparum; [5]
  IC50: 1.1 nM

## CCCSSC(CCO)=C(C)N(C=O)CCCCCCCCCCCCN(C=O)C(C)=C(CCO)SSCCC [TS3b, N,N′-diformyl-N,N′-di[1-methyl-2-propyl-dithio-4-hydroxybut-1-enyl]-1,12-diaminododecane]
P. falciparum; Plasmodium falciparum, in vitro growth of P. falciparum, [3H]hypoxanthine incorporation, 48 hours test, read-out: IC50
  IC50: 1.3 nM
[1]
  Oral absorption index (LD50 po/LD50 ip ratio, acute): 6.7
[1]; ip, infected mice, ip, read-out: In vivo LD50 (mg/kg) semi-chronic in mice infected with malaria
  LD50 at 4 days: 32 mg/kg
[1]; ip
  LD50: 240 mg/kg
[1]; [6]
  LD50 at 4 days: 90 mg/kg
[1]; po
  LD50: 1600 mg/kg
[1]; [7]
  LD50 at 4 days: 410 mg/kg
P. vinckei; ip
  ED50: ~7 mg/kg
P. vinckei; po
  ED50: ~180 mg/kg
[2]
  time of first serum level peak: in less than two hours
Babesia divergens
  IC50: < 20 nM
B. canis
  IC50: < 20 nM

## COCCC(SC(=O)c1ccc(CN2CCOCC2)cc1)=C(C)N(C=O)CCCCCCCCCCCCN(C=O)C(C)=C(CCOC)SC(=O)c1ccc(CN2CCOCC2)cc1 [TE4g, N,N′-diformyl-N,N′-di[1-methyl-2-S-(p-morpholino-methylphenylcarboxy)-thio-4-methoxybut-1-enyl]-1,12-diaminododecane]
P. falciparum; [5]
  IC50: 2.3 nM

## COc1ccc(C(=O)SC(CCOCCCCCCOCCC(SC(=O)c2ccc(OC)cc2)=C(C)N(C=O)Cc2ccccc2)=C(C)N(C=O)Cc2ccccc2)cc1 [TE10, 2,17-(N,N′-diformyl-N,N′-dibenzyl)diamino-3,16-S-thio-p-methoxybenzoyl-6,13-dioxaoctadeca-2,16-diene]
P. falciparum; [5]
  IC50: 12 nM

## CC(=C1CCOC(=O)S1)N(C=O)CCCCCCCCCCCCN(C=O)C(C)=C1CCOC(=O)S1 [TE3, N,N′-diformyl-N,N′-di[1(2-oxo-4,5-dihydro-1,3-oxathian-4-ylidene)ethyl]1,12-diaminododecane]
P. falciparum; [5]
  IC50: 3 nM and 2.6 nM

## c1ccc(Cc2csc[n+]2CCCCCCCCCCCC[n+]2cscc2Cc2ccccc2)cc1 [T16, dodecamethylenebis[4-(1-benzyl)-thiazolium] dibromide]
P. falciparum; [5]
  IC50: 10 nM

## CCOC(=O)CC(=C(CCCCCCCCCCCCC(SC(=O)c1ccccc1)=C(CC(=O)OCC)N(C=O)Cc1ccccc1)SC(=O)c1ccccc1)N(C=O)Cc1ccccc1 [TE13, ethyl 3,18-(N,N′-diformyl-N,N′-dibenzyl)diamino-4,17-S-thiobenzoyleicosa-3,17-dienedioate]
P. falciparum; [5]
  IC50: 650 nM

## N,N′-dimethyl-N,N′-(5-chloropentyl)-1,16-hexadecane diamine hydrochloride [P1]
P. falciparum; [5]
  IC50: 1.7 nM

## CCN(CC)Cc1ccc(C(=O)SC(CCOC)=C(C)N(C=O)CCCCCCCCCCCCN(C=O)C(C)=C(CCOC)SC(=O)c2ccc(CN(CC)CC)cc2)cc1 [TE4f, N,N′-diformyl-N,N′-di[1-methyl-2-S-(p-diethylaminomethylphenylcarboxy)-thio-4-methoxybut-1-enyl]-1,12-diaminododecane]
P. falciparum; [5]
  IC50: 2.3 nM

## COCCC(SC(=O)c1ccccc1)=C(C)N(C=O)CCCCCCCCCCCCN(C=O)C(C)=C(CCOC)SC(=O)c1ccccc1 [TE4c, N,N′-diformyl-N,N′-di[1-methyl-2-S-thiobenzoyl-4-methoxybut-1-enyl]-1,12-diaminododecane]
P. falciparum; [5]
  IC50: 2 nM
[1]
  Oral absorption index (LD50 po/LD50 ip ratio, acute): ˜10
[1]; ip
  In vivo LD50 (mg/kg) (mouse) acute: 100 mg/kg
[1]; [8]
  In vivo LD50 (mg/kg) (mouse) semi-chronic: ≧30^d mg/kg
[1]; po
  In vivo LD50 (mg/kg) (mouse) acute: ˜1000 mg/kg
  In vivo LD50 (mg/kg) (mouse) semi-chronic: ˜300 mg/kg
P. vinckei; ip
  In vivo ED50 (mg/kg) (P. vinckei): 1 mg/kg
[3]; [9]
  time of first serum level peak: in less than two hours
  time of second serum level peak: around 15 hours
[3]; 50 mg/kg po vs 3 mg/kg ip
  relative bioavailability [AUC (po)/AUC (ip)]: 5%
[3]; higher doses 10 mg/kg ip and 150 mg/kg po
  time of second serum level peak: around 23 hours
[3]; [10]
  AUC: 3300 ng·h/mL
  C0: 180 ng/mL
  t1/2: 12 h
[3]; [11]
  AUC: 2700 ng·h/mL
  C0: 130 ng/mL
[3]; [12]
  C0: 1000 ng/mL
  t1/2: around 10 hours
[4]; 6 months following the treatment
  recurrence of parasitemia after treatment: no further occurrence was observed in the 6 months following the treatment
[4]; parasitemia 1% or 6% at start, im 2 mg/kg, 2 injections per day, 8 days
  blood parasitemia after treatment: completely eliminated

## CC(Cl)CCCN(C)CCCCCCCCCCCCCCCCN(C)CCCC(C)Cl (stereo not shown) [P2, N,N′-dimethyl-N,N′-(4-chloropentyl)-1,16-hexadecanediamine hydrochloride]
P. falciparum; [5]
  IC50: 0.5 nM

## Cc1c(CCO)sc[n+]1CCCCCCCCCCCC[n+]1csc(CCO)c1C.[Br-].[Br-] [T3, 1,12-dodecamethylene bis [4-methyl-5-(2-hydroxyethyl)thiazolium] dibromide]
P. falciparum; [5]
  IC50: 2.25 nM
[1]
  Oral absorption index (LD50 po/LD50 ip ratio, acute): 70
[1]; ip
  In vivo LD50 (mg/kg) (mouse) acute: 10 mg/kg
[1]; [8]
  In vivo LD50 (mg/kg) (mouse) semi-chronic: 7.5 mg/kg
[1]; po
  In vivo LD50 (mg/kg) (mouse) acute: 700 mg/kg
  In vivo LD50 (mg/kg) (mouse) semi-chronic: 160 mg/kg

## 2,15-(N,N′-diformyl-N,N′-dibenzyl)diamino-1,16-S-thiobenzoyl-hexadeca-1,15-diene [TE16]
P. falciparum; [5]
  IC50: 12 nM

## Cc1csc[n+]1CCCCCCCCCCCC[n+]1cscc1C [T6, 1,12-dodecamethylenebis(4-methylthiazolium) diiodide]
P. falciparum; [5]
  IC50: 3 nM

## C[N+]1(CCCCCCCCCCCCCCCC[N+]2(C)CCCC2)CCCC1 [G25, 1,16-hexadecamethylene bis-(N-methylpyrrolidinium), reference compound]
P. falciparum; Plasmodium falciparum
  IC50: 0.6 nM
[1]
  Oral absorption index (LD50 po/LD50 ip ratio, acute): 87
[1]; ip
  LD50: 1.27 mg/kg
[1]; [6]
  LD50 at 4 days: 1.15 mg/kg
[1]; po
  LD50: 130 mg/kg
[1]; [7]
  LD50 at 4 days: 65 mg/kg
P. vinckei; ip
  ED50: 0.22 mg/kg
P. vinckei; po
  ED50: ~15 mg/kg

## 1,12-decamethylene bis[4-methyl-5-(2-methoxyethyl)thiazolium] diiodide [T4]
P. falciparum; [5]
  IC50: 0.65 nM
